Details of this series: species or system patients. As for the experimental part:
Another example study is now described. In this example study, 14 patients with a variety of intracranial pathologies (including low- and high-grade gliomas, meningioma, and intracranial lung metastases, as indicated in FIG. 17) were administered 20-mg/kg of ALA 3 hours prior to induction of anesthesia. The neurosurgeon performed a conventional standard craniotomy procedure with image-guidance using a surgical microscope modified for PpIX fluorescence. At the surgical bed, the surgeon acquired multiple sets of measurements using an example probe, with corresponding tissue specimens collected and processed for histopathological analysis. […] In addition, the surgeon scored the visible fluorescence as viewed through the fluorescence-capable surgical microscope (scores from 0-4). All specimens were assessed as either normal or abnormal, such that presence of tumor cells was assessed as abnormal.
Receiver-Operator Characteristic Analysis: The receiver-operator characteristic (ROC) curves were generated using the PpIX concentrations as the parameter comparing normal tissue to these tumor populations: all tumors, all gliomas, low-grade gliomas (LGGs), high-grade gliomas (HGGs), meningiomas and metastases. […] The uncorrected fluorescence metric was the magnitude of the PpIX fluorescence peak from the raw fluorescence spectrum, i.e. Fx,m at 635 nm (see Eqs. 1 and 4). […]

Data on one compound can be found in patent US10561318B2, “Device, system and method for quantifying fluorescence and optical properties” (University Health Network, priority 2010, dated 2020).

`C=CC1=C(C)c2cc3[nH]c(cc4nc(cc5[nH]c(cc1n2)c(C)c5CCC(=O)O)C(CCC(=O)O)=C4C)c(C)c3C=C` [PpIX, protoporphyrin IX]: under “human”, the “tumor-to-normal (T/N) ratio of in vivo PpIX concentration” value stood at 200. Further, the “PpIX in abnormal tissue compared to normal tissue” value (in vivo) is given as “approximately at least five times more PpIX”.
